Target: T1, JNK1α1 (Homo sapiens, UniProt P45983)
T1 construct: catalytic domain containing amino acids 1-364 and N-terminal hexahistidine tag; hexahistidine (His6) (N); made in house; host or cells: E. coli BL21 (DE3)
Assay: Coupled spectrophotometric (PK/LDH) JNK1α1 assay: % inhibition and Ki determination
Assay type: biochemical
Details: for inhibition at 10 µM / inhibition at 1 µM: read-out: % Inhibition JNK-1; for Ki: JNK-1
How it was run: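 Initial rates were taken from the absorbance decrease at 340 nm at 30° C. Ki was fitted with a tight-binding model over 11 concentrations (top 100 μM); single-point inhibition was tested at 1 or 10 μM.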

T1 sequence (P45983 1-364): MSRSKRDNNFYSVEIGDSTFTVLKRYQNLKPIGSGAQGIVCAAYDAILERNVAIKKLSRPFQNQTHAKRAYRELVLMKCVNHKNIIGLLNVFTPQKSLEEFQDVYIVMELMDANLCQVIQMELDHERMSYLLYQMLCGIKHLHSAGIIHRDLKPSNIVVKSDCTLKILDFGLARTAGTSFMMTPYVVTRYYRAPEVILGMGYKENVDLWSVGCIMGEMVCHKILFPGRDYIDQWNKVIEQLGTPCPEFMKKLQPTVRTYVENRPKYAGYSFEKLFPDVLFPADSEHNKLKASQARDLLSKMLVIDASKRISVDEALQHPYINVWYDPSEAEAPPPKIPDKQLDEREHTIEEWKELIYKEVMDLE

| Ki | other results | SMILES |
| --- | --- | --- |
|  | inhibition at 10 µM: 38% | CC(C)c1noc(CNC(=O)c2cccc3cnc(N[C@H]4CC[C@H](O)CC4)nc23)n1 [Example 500, 2-[(trans-4-hydroxycyclohexyl)amino]-N-[(3-isopropyl-1,2,4-oxadiazol-5-yl)methyl]quinazoline-8-carboxamide] |
| 722 nM |  | O=C(N[C@@H]1COC[C@H]1O)c1ccc2cnc(NC3CCCCC3)nc2c1 [Example 405, 2-(cyclohexylamino)-N-[(3R,4S)-4-hydroxytetrahydrofuran-3-yl]quinazoline-7-carboxamide] |
| 945 nM |  | O=C(NCCO)c1ccc2cnc(N[C@H]3CC[C@H](O)CC3)nc2c1 [Example 346, 2-[(trans-4-hydroxycyclohexyl)amino]-N-(2-hydroxyethyl)quinazoline-7-carboxamide] |
| 260 nM |  | CS(=O)(=O)N[C@H]1CC[C@H](Nc2ncc3ccc(OC4CCOC4)cc3n2)CC1 (stereo partly drawn) [Example 162, N-(trans-4-{[7-(tetrahydrofuran-3-yloxy)quinazolin-2-yl]amino}cyclohexyl)methanesulfonamide] |
|  | inhibition at 1 µM: 24% | CN1CCC[C@H]1COc1ccc2cnc(N[C@H]3CC[C@H](O)CC3)nc2c1 [Example 273, trans-4-[(7-{[(2S)-1-methylpyrrolidin-2-yl]methoxy}quinazolin-2-yl)amino]cyclohexanol] |
| 2490 nM |  | CC(=O)N1CC[C@@H](NC(=O)c2ccc3cnc(N[C@H]4CC[C@H](O)CC4)nc3c2)C1 [Example 371, N-[(3R)-1-acetylpyrrolidin-3-yl]-2-[(trans-4-hydroxycyclohexyl)amino]quinazoline-7-carboxamide] |
| 55 nM |  | COc1ccccc1C(CO)NC(=O)c1ccc2cnc(N[C@H]3CC[C@H](O)CC3)nc2c1 (stereo partly drawn) [Example 97, 2-[(trans-4-hydroxycyclohexyl)amino]-N-[2-hydroxy-1-(2-methoxyphenyl)ethyl]quinazoline-7-carboxamide] |
| 226 nM |  | CN([C@H]1CC[C@H](Nc2ncc3cccc(C(=O)N[C@@H]4CCC[C@H]4O)c3n2)CC1)S(C)(=O)=O (relative stereo) [Example 142, N-[(trans)-2-hydroxycyclopentyl]-2-({trans-4-[methyl(methylsulfonyl)amino]cyclohexyl}amino)quinazoline-8-carboxamide] |
| 160 nM |  | CC[C@H](C)[C@@H](CO)NC(=O)c1ccc2cnc(N[C@H]3CC[C@H](O)CC3)nc2c1 [Example 378, 2-((trans-4-hydroxycyclohexyl)amino]-N-[(1S,2S)-1-(hydroxymethyl)-2-methylbutyl]quinazoline-7-carboxamide] |
|  | inhibition at 10 µM: 15% | c1ncc(-c2ccc(CNc3cc4cc(-c5cn[nH]c5)ccc4cn3)cc2)cn1 [Example 235, 6-(1H-pyrazol-4-yl)-N-(4-pyrimidin-5-ylbenzyl)isoquinolin-3-amine] |
|  | inhibition at 10 µM: 65% | CCN1CCC(Oc2cccc3cnc(N[C@H]4CC[C@H](O)CC4)nc23)C1 (stereo partly drawn) [Example 259, trans-4-({8-[(1-ethylpyrrolidin-3-yl)oxy]quinazolin-2-yl}amino)cyclohexanol] |
| 235 nM |  | O=C(NC1(c2ccncc2)CC1)c1cccc2cnc(N[C@H]3CC[C@H](O)CC3)nc12 [Example 455, 2-[(trans-4-hydroxycyclohexyl)amino]-N-(1-pyridin-4-ylcyclopropyl)quinazoline-8-carboxamide] |
| 74 nM |  | O=C(N[C@H](CO)c1ccccc1)c1ccc2cnc(NC3CCCCC3)nc2c1 [Example 373, 2-(cyclohexylamino)-N-[(1S)-2-hydroxy-1-phenylethyl]quinazoline-7-carboxamide] |
| 1410 nM |  | CC(C)N[C@H]1CC[C@H](Nc2ncc3cccc(OC4CCOC4)c3n2)CC1 (stereo partly drawn) [Example 193, trans-N-isopropyl-N′-[8-(tetrahydrofuran-3-yloxy)quinazolin-2-yl]cyclohexane-1,4-diamine] |
|  | inhibition at 1 µM: 14% | CC(COc1cccc2cnc(N[C@H]3CC[C@H](O)CC3)nc12)N(C)C (stereo partly drawn) [Example 266, trans-4-({8-[2-(dimethylamino)propoxy]quinazolin-2-yl}amino)cyclohexanol] |
